From patent US12366579B2, “Sulfur-heterocycle exchange chemistry and uses thereof” (University of Virginia Patent Foundation, priority 2019, dated 2025) come the findings set out here.

Entries after “also recorded” stand apart in the source; their conditions may differ.

Assay [1] concerns the target T1, human fumarylacetoacetase (FAAA) (Homo sapiens, UniProt P16930).
T1 construct: made in house; host or cells: HEK293T, soluble proteome
The assay is described as follows: Chemical proteomics analysis and gel-based screen of human FAAA with HHS SuTEx ligands. It is filed as binding. Here is the method: FIGS. 44A-44C. Modification of human fumarylacetoacetase (FAAA) with HHS SuTEx ligands. FIG. 44A is a series of graphs showing the chemical proteomics analysis of human FAAA using an HHS SuTEx ligand, HHS0401 (25 μM) shown in FIG. 43. HHS0401 modifies the tyrosine at residue 244. FIG. 44B is an image of a gel-based chemical proteomic screen for human FAAA fragment ligands. Recombinant hFAAA-HEK293T soluble proteomes pretreated with indicated fragment (25 μM, 120 min) followed by labeling with HHS-475 (100 μM, 120 min).
(§1) In addition, SuTEx fragment EKT231 (see FIG. 46A) modifies EDC3 at tyrosine 475.

The target of assay [2] is human prostaglandin reductase 2 (PTGR2) (Homo sapiens, UniProt Q8N8N7). The assay is described as follows: Chemical proteomics analysis and gel-based screen of human PTGR2 with HHS SuTEx ligands. Format: binding.
Sequence of human prostaglandin reductase 2 (PTGR2) (Q8N8N7 whole entry): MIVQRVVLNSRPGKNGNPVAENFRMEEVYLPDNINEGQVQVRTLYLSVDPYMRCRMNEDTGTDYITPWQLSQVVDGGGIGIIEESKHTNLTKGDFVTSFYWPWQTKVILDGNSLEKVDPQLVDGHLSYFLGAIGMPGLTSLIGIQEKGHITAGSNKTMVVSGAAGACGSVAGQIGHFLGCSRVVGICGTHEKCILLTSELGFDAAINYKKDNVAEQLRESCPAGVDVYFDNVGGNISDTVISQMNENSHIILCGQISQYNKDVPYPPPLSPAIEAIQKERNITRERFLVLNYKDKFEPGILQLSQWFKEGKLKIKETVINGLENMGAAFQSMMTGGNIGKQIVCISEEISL
Source text: FIGS. 45A and 45B: Modification of human prostaglandin reductase 2 (PTGR2) with HHS SuTEx ligands. HHS0701 modifies the tyrosine at residue 100.
as §1

For the next assay, the system named is DM93 and HEK293T cells. The assay is described as follows: Proteome-wide profiling of sulfonyl imidazole analogs in live cells. It is filed as cell-based, human. To be noted: 100 μM, 2 hours, 37° C. How it is done: A chemical proteomic treatment and analysis protocol was established to evaluate the structural-induced effect on the proteomic coverage of the sulfonyl imidazole analogs. […] Duke Melanoma 93 (DM93) and human embryonic kidney 293T (HEK293T) cells were treated with the probes (100 μM, 2 hours, 37° C.). The cells were harvested, washed and fractionated to expose the proteome. The cytosolic proteome subsequently underwent copper-catalyzed azide-alkyne cycloaddition (CuAAC) with a dethiobiotin PEG-3 azide tag. The tagged proteomes were digested with trypsin lys-C protease mixture, enriched by avidin affinity chromatography, eluted and analyzed by chromatography-tandem high-resolution mass spectrometry (LC-MS). The bioinformatic match of probe modified peptides was filtered with data confidence control criteria of ≥300 Byonic score, ≥3 log probability and ≤5 ppm mass accuracy (amino acid residue modifications of Y, K, N, Q, and W were processed at this point).

The next assay deals with DM93 soluble proteomes. The assay is described as follows: Proteome-wide competitive chemical proteomics of SuTEx fragments vs HHS-482. It is filed as binding, human. Conditions: fragment 50 μM, 30 min, 37° C. How it is done:
Heavy and light proteomes (432 μl of each) were diluted to 2.3 mg ml^−1 in PBS and sample aliquots (432 μl) were treated with SuTEx fragment at the indicated concentrations (5 μl, 100× stock in DMSO), mixed gently and incubated for 30 min at 37° C. Samples were then treated with HHS-482 (5 μL, 5 mM stock in DMSO) for 30 min at 37° C. Probe-modified proteomes were conjugated to desthiobiotin-PEG3-azide followed by enrichment of probe-modified peptides for nano-electrospray ionization-LC-MS/MS analyses as previously described^57.
The chemical proteomic method for functional tyrosine profiling^72 was tailored to investigate AG/LG effects on SuTEx fragment reactivity in complex proteomes. In brief, isotopically light and heavy soluble proteomes from DM93 melanoma cells cultured by stable isotopic labeling by amino acids in cell culture (SILAC^80) media were used for quantitative liquid chromatography-mass spectrometry (LC-MS) studies. Light and heavy DM93 proteomes were treated with dimethyl sulfoxide (DMSO) vehicle or SuTEx fragment (50 μM, 30 min, 37° C.), respectively, followed by labeling with the tyrosine-reactive probe HHS-482 described hereinabove (50 μM, 30 min, 37° C.) and copper-catalyzed azide-alkyne cycloaddition (CuAAC) conjugation of a desthiobiotin-azide enrichment tag. Proteomes were digested with trypsin protease, HHS-482-modified peptides enriched by avidin chromatography and analyzed by high-resolution LC-MS/MS and bioinformatics as described hereinabove.
To evaluate substituent effects on proteome activity, reactivity profiles of each respective SuTEx fragment were compared across >1500 total distinct HHS-482-modified tyrosine sites from >650 detected proteins. Fragments were screened across independent biological replicates (n=2-3) and high-quality tyrosine site annotations were identified by detection in at least a single biological replicate from each fragment dataset, probe-specific enrichment (HHS-482 probe/DMSO SILAC ratio (SR)>5), and quality control confidence criteria of ≥300 Byonic score^31, […] protein false discovery rate (FDR), and ≤5 ppm mass accuracy in order to minimize the potential for false positives^72. SILAC ratios (SR) from competitive studies (Light-DMSO/Heavy-fragment) were used to identify fragment-competed tyrosine residues as sites showing >75% reduction in enrichment by HHS-482 compared with DMSO vehicle control (i.e. liganded tyrosines, SR>4). In total, 305 liganded tyrosines on 213 distinct proteins were identified, corresponding to ˜30% and ˜44% of total quantified tyrosines and proteins, respectively. […]

The target in the next assay is T2, purified DPP3 (Homo sapiens, UniProt Q9NY33).
T2 sequence (Q9NY33 1-737): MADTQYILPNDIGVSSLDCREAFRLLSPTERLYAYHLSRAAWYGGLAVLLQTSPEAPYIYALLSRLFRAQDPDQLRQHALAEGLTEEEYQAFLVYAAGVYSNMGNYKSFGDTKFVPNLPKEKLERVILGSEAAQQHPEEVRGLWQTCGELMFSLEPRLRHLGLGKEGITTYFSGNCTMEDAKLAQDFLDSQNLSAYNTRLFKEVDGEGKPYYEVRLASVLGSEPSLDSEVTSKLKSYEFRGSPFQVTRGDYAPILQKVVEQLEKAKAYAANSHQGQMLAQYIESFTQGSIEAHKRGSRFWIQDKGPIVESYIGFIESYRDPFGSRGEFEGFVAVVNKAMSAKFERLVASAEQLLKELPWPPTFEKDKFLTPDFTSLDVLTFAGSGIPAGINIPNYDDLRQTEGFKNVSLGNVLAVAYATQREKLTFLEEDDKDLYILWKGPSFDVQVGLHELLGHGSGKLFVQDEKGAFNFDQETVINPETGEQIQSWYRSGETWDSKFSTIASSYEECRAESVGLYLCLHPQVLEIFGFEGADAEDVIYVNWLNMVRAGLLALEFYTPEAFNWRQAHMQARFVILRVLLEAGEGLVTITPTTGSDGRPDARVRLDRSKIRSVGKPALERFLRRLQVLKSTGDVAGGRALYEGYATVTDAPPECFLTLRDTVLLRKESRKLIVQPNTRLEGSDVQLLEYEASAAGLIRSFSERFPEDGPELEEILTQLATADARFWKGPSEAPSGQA
The assay is described as follows: DPP3 biochemical substrate assay (Arg-Arg β-naphthylamide peptidase assay). Conditions: negative control with cyclopropyl-modified AG. Here is the method:
DPP3 Biochemical Substrate Assay
Substrate assays were performed using purified DPP3 protein diluted to 5 ng/μL in assay buffer. DPP3 samples (10 μl) were diluted to 85 μl with assay buffer and transferred to a black 96-well plate. Samples were treated with a 50× stock of SuTEx-fragment at indication concentration for 30 min at 37° C. A stock solution of DPP3 substrate (Arg-Arg β-naphthylamide trihydrochloride, 0.5 mM: Sigma-Aldrich. St, Louis, Missouri, United States of America) was diluted to 100 μM in assay buffer. Substrate solution (5 μl) was added to each sample. Samples were mixed briefly by shaking and reaction monitored in kinetic mode by measuring fluorescence at 450 nm for 10 min on a BMG Labtech CLARIOstar plate reader (BMG Labtech, Cary, North Carolina, United States of America).

Assay [3] deals with T3, recombinant GSTP1 lysates (Homo sapiens, UniProt P09211).
T3 construct: FLAG (C); host or cells: HEK293T, transient transfection; soluble proteome used unpurified
T3 sequence (P09211 whole entry): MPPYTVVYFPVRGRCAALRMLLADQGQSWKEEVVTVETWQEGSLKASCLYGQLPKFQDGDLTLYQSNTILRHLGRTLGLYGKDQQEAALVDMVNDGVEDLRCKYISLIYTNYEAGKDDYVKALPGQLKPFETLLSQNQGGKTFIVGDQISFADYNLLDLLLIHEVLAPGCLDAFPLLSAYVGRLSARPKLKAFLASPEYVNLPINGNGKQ
Briefly: GSTP1 biochemical substrate assay (GSH conjugation to BDNB). To be noted: negative control probes; highest concentration tested 100 μM. Here is the method:
GSTP1 Biochemical Substrate Assay
Recombinant GSTP1-HEK293T soluble cell proteomes were diluted to 1 mg ml^−1 in assay buffer (100 mM NaH2PO4, pH 7.0). Samples were treated with inhibitor at indicated concentrations for 30 min at 37° C. GSH stock solution (250 mM in water) was diluted to 4 mM in assay buffer and 25 μl of diluted GSH solution was added to each sample. A substrate stock solution of 75 mM 1-bromo-2,4-dinitrobenzene […] in ethanol was diluted to 2 mM in assay buffer. Samples (25 μl) were aliquoted into a 96-well plate and spun briefly via centrifuge. Next, 50 μl of 2 mM BDNB was added to each well and the reaction was monitored in kinetic mode by measuring absorbance at 340 nm for 10 min on a BMG Labtech CLARIOstar plate reader (BMG Labtech, Cary, North Carolina, United States of America).

For a further assay, the system named is A549 cells. Briefly: Chemical phosphoproteomics of pervanadate-activated cells by SuTEx probe labeling (SILAC). Format: cell-based, human. To be noted: pervanadate 100 μM, 30 min, HHS-475 100 μM. Here is the method:
Pervanadate (100 mM) was prepared as previously described^41 by mixing 100 μL of sodium orthovanadate (100 mM Na3VO4, New England BioLabs #P0758S, Ipswich, Massachusetts, United States of America) with 1 μL of hydrogen peroxide (H2O2, 30% v/v in water) on ice. […] After pervanadate treatment, cells were washed twice with cold PBS followed by harvest. Cell pellets were resuspended in PBS supplemented with protease and phosphatase inhibitor mini tablets (Thermo Scientific #A32959; ThermoFisher Scientific, Waltham, Massachusetts, United States of America) and then lysed by sonication (3×1 sec pulse, 20% amplitude). For CTNND1 western blot studies, cell pellets were lysed in NP40 Cell Lysis Buffer (#FNN0021, Invitrogen, Carlsbad, California, United States of America) supplemented with protease/phosphatase inhibitor tablets. Cell lysates were separated via centrifugation at 100,000×g for 45 min at 4° C. for western blot or chemical proteomic studies. Note: pervanadate treatments are performed on live cells but SuTEx probe labeling occurs in proteomes in vitro.
Proteomes from cells treated with pervanadate activation conditions (100 μM, 30 min) were labeled with HHS-475 or HHS-482 (100 μM, 30 min) followed by CuAAC with desthiobiotin and quantitative LC-MS to evaluate how phosphorylation status affected SuTEx probe labeling. […] In total ˜2,200 probe-modified tyrosine sites were detected across ˜1,000 proteins using both HHS-475 and HHS-482 that were further separated into pervanadate-sensitive (PerS, SR≥2) and -insensitive groups (PerI, SR<2). The probe-modified tyrosines found in the PerS group appeared to be enriched for annotated phosphotyrosine sites (HTP≥10 in PhosphoSitePlus, see FIGS. 6C and 18) and represented only a small fraction of all unique HHS-475- and HHS-482-modified tyrosines detected by chemical proteomics (˜3%, 67 sites). […]

T1 sequence (P16930 whole entry): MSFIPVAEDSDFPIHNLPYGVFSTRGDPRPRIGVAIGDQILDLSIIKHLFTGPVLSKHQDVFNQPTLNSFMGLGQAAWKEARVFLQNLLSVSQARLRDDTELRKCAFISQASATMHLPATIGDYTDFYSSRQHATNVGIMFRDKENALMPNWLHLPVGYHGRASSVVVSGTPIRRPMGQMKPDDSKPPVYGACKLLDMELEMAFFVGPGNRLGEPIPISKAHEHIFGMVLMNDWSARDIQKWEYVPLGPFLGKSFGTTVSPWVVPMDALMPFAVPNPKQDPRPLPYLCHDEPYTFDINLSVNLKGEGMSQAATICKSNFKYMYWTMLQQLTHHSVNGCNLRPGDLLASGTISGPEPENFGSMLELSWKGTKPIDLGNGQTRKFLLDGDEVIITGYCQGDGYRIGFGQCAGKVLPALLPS

Regarding `O=C(NCc1ccccc1)c1ccc(S(=O)(=O)n2cnnc2)cc1` [HHS0401], the “inhibition of FAAA, gel-based chemical proteomic analysis” value in assay [1] (FIG. 44C) is reported as “dose-dependent inhibition”. Moreover, the “tyrosine residue of FAAA modified” value in assay [1] (ligand 25 μM) came out at 244.
Take `O=C(c1ccc(S(=O)(=O)n2cnnc2)cc1)N1CCC(c2ccccc2)CC1` [HHS0701]: the “inhibition of PTGR2, gel-based chemical proteomic screen” value in assay [2] (FIG. 45B) is on record as “dose-dependent inhibition”. The “tyrosine residue of PTGR2 modified” value in assay [2] (ligand 25 μM) is on record as 100.
Take `C#CCNC(=O)c1ccc(S(=O)(=O)n2ccnc2)cc1` [HHS-Im-01, 4-((1H-imidazol-1-yl)sulfonyl)-N-(prop-2-yn-1-yl)benzamide]: in the assay with DM93 and HEK293T cells, the Y/K specificity is reported as 0.77; the “overall reactivity towards tyrosine and lysine residues (number of sites)” value is recorded as 329.
As for `COc1ccc(-c2ncn(S(=O)(=O)C3CC3)n2)cc1` [JWB131, 1-(Cyclopropylsulfonyl)-3-(4-methoxyphenyl)-1H-1,2,4-triazole], the “reactivity against the proteome” value in the assay with DM93 soluble proteomes was “largely unreactive”. Also, on purified DPP3, the “activity against DPP3 in substrate assay” value is “inactive”.
Take `O=S(=O)(C1CC1)n1cnc(-c2ccncc2)n1` [JWB191, 4-(1-(Cyclopropylsulfonyl)-1H-1,2,4-triazol-3-yl)pyridine]: the “inhibitory activity against GSTP1” value in assay [3] is recorded as “lack of activity; also recorded: did not show inhibitory activity”.
Take `C#CCNC(=O)c1ccc(S(=O)(=O)n2cnc(C(F)(F)F)c2)cc1` [KY-Im-TFM, N-(prop-2-yn-1-yl)-4-((4-(trifluoromethyl)-1H-imidazol-1-yl)sulfonyl)benzamide]: in the assay with DM93 and HEK293T cells, the Y/K specificity was found to be 3.58; the “overall reactivity towards tyrosine and lysine residues (number of sites)” value is listed as 338.
pervanadate: in the assay on A549 cells, the “SILAC ratio (SR, light PBS/heavy pervanadate) of SuTEx probe labeling at CTNND1 Y228” value is on record as 3.3; the “SILAC ratio (SR, light PBS/heavy pervanadate) of SuTEx probe labeling at PKM Y105” value is given as 1.1; the “SILAC ratio (SR, light PBS/heavy pervanadate) of SuTEx probe labeling at STAT3 Y705” value was determined as 2.3.
